From patent publication EP0637237B1, “CALCIUM RECEPTOR-ACTIVE MOLECULES” (BRIGHAM AND WOMEN'S HOSPITAL, INC., priority 1993, dated 1994)

Molecular target: T1, C-cell Ca^2+ receptor (Rattus norvegicus, UniProt P48442)
T1 sequence (P48442 20-1079): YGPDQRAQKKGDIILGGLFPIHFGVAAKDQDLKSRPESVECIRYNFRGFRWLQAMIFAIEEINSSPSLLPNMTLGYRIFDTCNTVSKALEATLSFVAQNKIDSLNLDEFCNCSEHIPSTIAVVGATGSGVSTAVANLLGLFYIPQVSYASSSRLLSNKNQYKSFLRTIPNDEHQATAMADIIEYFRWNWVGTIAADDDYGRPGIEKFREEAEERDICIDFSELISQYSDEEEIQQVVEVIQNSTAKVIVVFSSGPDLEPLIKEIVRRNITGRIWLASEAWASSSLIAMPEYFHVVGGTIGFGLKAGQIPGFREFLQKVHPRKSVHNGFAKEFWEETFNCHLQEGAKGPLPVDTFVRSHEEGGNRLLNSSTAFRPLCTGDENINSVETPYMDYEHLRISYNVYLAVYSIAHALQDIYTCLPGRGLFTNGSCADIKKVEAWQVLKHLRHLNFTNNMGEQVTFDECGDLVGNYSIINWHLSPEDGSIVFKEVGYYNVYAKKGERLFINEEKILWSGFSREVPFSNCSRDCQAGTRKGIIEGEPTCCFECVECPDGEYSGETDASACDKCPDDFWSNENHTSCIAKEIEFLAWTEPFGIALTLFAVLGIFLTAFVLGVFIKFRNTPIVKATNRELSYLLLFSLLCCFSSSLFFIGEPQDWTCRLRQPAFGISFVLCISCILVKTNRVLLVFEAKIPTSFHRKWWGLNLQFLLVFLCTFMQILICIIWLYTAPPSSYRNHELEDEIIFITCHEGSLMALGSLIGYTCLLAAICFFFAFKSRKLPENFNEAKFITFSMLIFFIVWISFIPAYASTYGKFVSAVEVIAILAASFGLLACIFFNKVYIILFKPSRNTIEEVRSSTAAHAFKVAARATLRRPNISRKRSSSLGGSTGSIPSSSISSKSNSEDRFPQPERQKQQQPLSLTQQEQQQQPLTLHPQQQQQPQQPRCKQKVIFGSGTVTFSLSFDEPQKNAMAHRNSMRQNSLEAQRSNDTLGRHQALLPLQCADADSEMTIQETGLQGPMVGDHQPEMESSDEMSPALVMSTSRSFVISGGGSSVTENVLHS
Assay type: cell-based
Conditions: spermine 10 mM, neomycin B 5 mM

NC[C@@H]1O[C@H](O[C@H]2[C@@H](O)[C@H](O[C@@H]3[C@@H](O)[C@H](N)C[C@H](N)[C@H]3O[C@H]3O[C@H](CN)[C@@H](O)[C@H](O)[C@H]3N)O[C@@H]2CO)[C@H](N)[C@@H](O)[C@@H]1O [neomycin B]
effect on basal [Ca2+]i: without effect on basal [Ca^2+]i
